The text below walks through data of US20130102595A1 (Curis, Inc., priority 2011, published 2013).

Where only a bound is given, the exact number is not on record here.

For assay [1], the target named is T1, mTor serine/threonine protein kinase (Homo sapiens, UniProt P42345).
T1 construct: FLAG; made in house; host or cells: Baculovirus expression system in Sf21 cells
Put plainly: mTor kinase radioisotope assay. The assay is classed as biochemical. To be noted: 70 uM ATP, 40 minutes; read-out: m-TOR IC50. The gist of the method: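 FLAG-tagged full-length recombinant human mTor from baculovirus/Sf21, incubated with p70S6K C-terminal fragment (2 mg/ml) and 70 uM ATP plus 33P-ATP tracer in 50 mM HEPES pH 7.5, 3 mM MnCl2, 40 min at room temperature. Phosphoric acid stop, filtermat capture, scintillation counting; IC50 from sigmoidal dose-response fit.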

Assay [2] has as its system HDACs (HeLa cell nuclear extracts). Description: HDAC enzymatic activity, Biomol Color de Lys system. The assay is classed as biochemical. Particulars: 1 hour, 25° C. The procedure, abridged: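 IC50 from sigmoidal fit of developer-terminated fluorescence (ex 350-380/em 440-460 nm). Reaction: 1 h at room temperature (25 °C), HeLa nuclear extract as HDAC source, artificial substrate, buffer of 50 mM Tris/Cl pH 8.0 with 137 mM NaCl, 2.7 mM KCl and 1 mM MgCl2.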

The subject of assay [3] is A549. Put plainly: Cell proliferation assay (CellTiter-Glo). The assay is classed as cell-based. Particulars: Homo sapiens, NSCLC, 72 hours, 0.5% fetal bovine serum, read-out: antiproliferative activity IC50, A549. The gist of the method:
(§1)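 Cells seeded at 5,000 to 10,000 per well were exposed to a range of compound concentrations for 72 hours in 0.5% fetal bovine serum. Growth inhibition was then determined from ATP content by luciferase luminescence after a 30-minute lysis incubation.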
In general terms: ATP-based viability assays read luminescence as a measure of living cells.

The subject of assay [4] is H460. Description: Cell proliferation assay (CellTiter-Glo). To be noted: Homo sapiens, NCI-H460; NSCLC; 72 hours, 0.5% fetal bovine serum; read-out: antiproliferative activity IC50, H460. The assay is classed as cell-based. The gist of the method: as §1
The test system of assay [5] is SWI-116. Description: Cell proliferation assay (CellTiter-Glo). Particulars: Colon; 72 hours, 0.5% fetal bovine serum; read-out: antiproliferative activity IC50, SWI-116. The assay is classed as cell-based. The gist of the method: as §1
For assay [6], the system named is MiaPaca1. Put plainly: Cell proliferation assay (CellTiter-Glo). The assay is classed as cell-based. Particulars: Pancreas; 72 hours, 0.5% fetal bovine serum; read-out: antiproliferative activity IC50, MiaPaca1. The procedure, abridged: as §1
The subject of assay [7] is H2122. Description: Cell proliferation assay (CellTiter-Glo). The assay is classed as cell-based. Particulars: Homo sapiens, NCI-H2122; NSCLC; 72 hours, 0.5% fetal bovine serum; read-out: antiproliferative activity IC50, H2122. The procedure, abridged:
as §1

The subject of assay [8] is SW620. Put plainly: Cell proliferation assay (CellTiter-Glo). Particulars: Homo sapiens, SW-620; Colon; 72 hours, 0.5% fetal bovine serum; read-out: antiproliferative activity IC50, SW620. The assay is classed as cell-based. The gist of the method:
as §1

In assay [9] the test system is H292. Description: Cell proliferation assay (CellTiter-Glo). The assay is classed as cell-based. To be noted: Homo sapiens, NCI-H292; NSCLC; 72 hours, 0.5% fetal bovine serum; read-out: antiproliferative activity IC50, H292. The procedure, abridged: as §1
Assay [10] deals with SW403. Put plainly: Cell proliferation assay (CellTiter-Glo). The assay is classed as cell-based. Particulars: Homo sapiens, SW-403; Colon; 72 hours, 0.5% fetal bovine serum; read-out: antiproliferative activity IC50, SW403. The gist of the method: as §1
For assay [11], the system named is CFPAC-1. Put plainly: Cell proliferation assay (CellTiter-Glo). The assay is classed as cell-based. Particulars: Homo sapiens, Pancreas, 72 hours, 0.5% fetal bovine serum, read-out: antiproliferative activity IC50, CFPAC-1. The gist of the method: as §1
In assay [12] the test system is HCT116. Description: Cell proliferation assay (CellTiter-Glo). The assay is classed as cell-based. Particulars: Homo sapiens, HCT-116; Colon; 72 hours, 0.5% fetal bovine serum; read-out: antiproliferative activity IC50, HCT116. The gist of the method: as §1
The test system of assay [13] is H358. Put plainly: Cell proliferation assay (CellTiter-Glo). The assay is classed as cell-based. Particulars: Homo sapiens, NCI-H358; NSCLC; 72 hours, 0.5% fetal bovine serum; read-out: antiproliferative activity IC50, H358. The gist of the method: as §1
The test system of assay [14] is SW1990. Description: Cell proliferation assay (CellTiter-Glo). The assay is classed as cell-based. Particulars: Homo sapiens, Pancreas, 72 hours, 0.5% fetal bovine serum, read-out: antiproliferative activity IC50, SW1990. The gist of the method: as §1
Assay [15] concerns T-84. Description: Cell proliferation assay (CellTiter-Glo). The assay is classed as cell-based. Particulars: Homo sapiens, T84; Colon; 72 hours, 0.5% fetal bovine serum; read-out: antiproliferative activity IC50, T-84. The gist of the method: as §1
Assay [16] relates to WiDr. Put plainly: Cell proliferation assay (CellTiter-Glo). The assay is classed as cell-based. Particulars: Homo sapiens, Colon, 72 hours, 0.5% fetal bovine serum, read-out: antiproliferative activity IC50, WiDr. The gist of the method: as §1
In assay [17] the test system is OPM-2. Put plainly: Cell proliferation assay (CellTiter-Glo). The assay is classed as cell-based. Particulars: Homo sapiens, Multiple Myeloma, 72 hours, 0.5% fetal bovine serum, read-out: antiproliferative activity IC50, OPM-2. The procedure, abridged: as §1
Assay [18] has as its system CaPan2. Description: Cell proliferation assay (CellTiter-Glo). The assay is classed as cell-based. Particulars: Homo sapiens, Capan-2; Pancreas; 72 hours, 0.5% fetal bovine serum; read-out: antiproliferative activity IC50, CaPan2. The procedure, abridged: as §1
Assay [19] has as its system Calu6. Put plainly: Cell proliferation assay (CellTiter-Glo). The assay is classed as cell-based. Particulars: Homo sapiens, Calu-6; NSCLC; 72 hours, 0.5% fetal bovine serum; read-out: antiproliferative activity IC50, Calu6. The gist of the method: as §1
Assay [20] relates to PANC-1. Description: Cell proliferation assay (CellTiter-Glo). The assay is classed as cell-based. Particulars: Homo sapiens, Pancreas, 72 hours, 0.5% fetal bovine serum, read-out: antiproliferative activity IC50, PANC-1. The procedure, abridged:
as §1

Assay [21] has as its system PC-3. Put plainly: Cell proliferation assay (CellTiter-Glo). The assay is classed as cell-based. Particulars: Homo sapiens, Prostate, 72 hours, 0.5% fetal bovine serum, read-out: antiproliferative activity IC50, PC-3. The procedure, abridged: as §1
Assay [22] deals with OVCAR-5. Put plainly: Cell proliferation assay (CellTiter-Glo). The assay is classed as cell-based. To be noted: Homo sapiens, Ovarian, 72 hours, 0.5% fetal bovine serum, read-out: antiproliferative activity IC50, OVCAR-5. The procedure, abridged:
as §1

Assay [23] has as its system CaPan1. Put plainly: Cell proliferation assay (CellTiter-Glo). The assay is classed as cell-based. Particulars: Homo sapiens, CAPAN-1; Pancreas; 72 hours, 0.5% fetal bovine serum; read-out: antiproliferative activity IC50, CaPan1. The gist of the method:
as §1

For assay [24], the system named is MDA-MB-231. Put plainly: Cell proliferation assay (CellTiter-Glo). The assay is classed as cell-based. To be noted: Homo sapiens, Breast, 72 hours, 0.5% fetal bovine serum, read-out: antiproliferative activity IC50, MDA-MB-231. The procedure, abridged:
as §1

The test system of assay [25] is LN-Cap. Put plainly: Cell proliferation assay (CellTiter-Glo). The assay is classed as cell-based. Particulars: Homo sapiens, LNCaP; Prostate; 72 hours, 0.5% fetal bovine serum; read-out: antiproliferative activity IC50, LN-Cap. The gist of the method:
as §1

The test system of assay [26] is glioblastoma xenografts. To be noted: oral dosage; cited from earlier work.

In general, IC50 refers to the midpoint of a concentration-inhibition curve. In the case of `COc1ccc(-c2nc(N3CCOCC3)c3sc(CN(C)c4ncc(C(=O)NO)cn4)cc3n2)cn1` [Compound 236, N-Hydroxy-2-(((2-(6-methoxypyridin-3-yl)-4-morpholinothieno[3,2-d]pyrimidin-6-yl)methyl)(methyl)amino)pyrimidine-5-carboxamide], the IC50 was 1 to 10 µM in assay [1]; less than 0.1 µM in [2]; 0.01 to 0.1 µM in [3]; 0.01 to 0.1 µM in assay [4]; less than 0.01 µM in [5]; 0.01 to 0.1 µM in assay [6]. Further, the IC50 in assay [7] is less than 0.01 µM; in assay [8] it was less than 0.01 µM; in [9], less than 0.01 µM; in assay [10] it was less than 0.01 µM; in assay [11], 0.01 to 0.1 µM; in assay [12] it was less than 0.01 µM. Further, the IC50 is less than 0.01 µM in [13]; less than 0.01 µM in assay [14]; 0.01 to 0.1 µM in assay [15]; 0.01 to 0.1 µM in assay [16]; less than 0.01 µM in assay [17]; 0.01 to 0.1 µM in assay [18]. The IC50 in [19] and in [20] was 0.01 to 0.1 µM in each case.

Regarding `CS(=O)(=O)N1CCN(Cc2cc3nc(-c4cccc5[nH]ncc45)nc(N4CCOCC4)c3s2)CC1` [GDC-0941, reference compound], the IC50 was 1 to 10 µM in assay [21]; 0.1 to 1 µM in assay [3]; 0.1 to 1 µM in assay [4]; 0.1 to 1 µM in assay [5]; 1 to 10 µM in assay [6]; 1 to 10 µM in assay [7]. The IC50 in [8] fell in the range of 0.1 to 1 µM; in assay [9], 1 to 10 µM; in [22] it was 0.1 to 1 µM; in assay [10], 1 to 10 µM; in [11], 1 to 10 µM; in assay [12] it was 0.1 to 1 µM. The IC50 is 1 to 10 µM in assay [23]; 1 to 10 µM in assay [13]; 1 to 10 µM in assay [14]; 1 to 10 µM in assay [15]; 0.1 to 1 µM in assay [16]; 0.1 to 1 µM in assay [17]. The IC50 was 1 to 10 µM in assay [18]; more than 10 µM in assay [24]; 1 to 10 µM in assay [19]; 0.1 to 1 µM in assay [25]; 1 to 10 µM in assay [20]. Besides, the “effect in glioblastoma xenografts in vivo” value in [26] is reported as “tumor suppression”.
